Assay results published in PubChem BioAssay AID328 (DTP/NCI, 2004).
Several values for one entry are separate records, joined by “and”; a condition that tells them apart may be missing. Identical values can stand only once. Toxic doses and inconclusive results are not listed.

Tested on: BDF1 mice, P388 leukemia ip, median survival T/C
Test: NCI In Vivo Anticancer Drug Screen. Data for tumor model P388 Leukemia (intraperitoneal) in B6D2F1 (BDF1) mice
Conditions: endpoint: median survival time, higher = longer survival
In short: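 In tumour-bearing mice, survival after compound treatment is set against the vehicle group and given as a quotient.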

[1] = dose: 10.0 mg/kg/injection, schedule: Q01DX009 (ip), vehicle: saline with Tween-80
[2] = dose: 20.0 mg/kg/injection, schedule: Q01DX009 (ip), vehicle: saline with Tween-80
[3] = dose: 100.0 mg/kg/injection, schedule: Q04DX003 (ip), vehicle: Klucel (hydroxypropylcellulose) (HPC)
[4] = dose: 200.0 mg/kg/injection, schedule: Q04DX003 (ip), vehicle: Klucel (hydroxypropylcellulose) (HPC)
[5] = dose: 100.0 mg/kg/injection, schedule: Q04DX003 (ip), vehicle: saline with Tween-80
[6] = dose: 200.0 mg/kg/injection, schedule: Q04DX003 (ip), vehicle: saline with Tween-80
[7] = dose: 400.0 mg/kg/injection, schedule: Q04DX003 (ip), vehicle: saline with Tween-80
[8] = dose: 100.0 mg/kg/injection, schedule: Q01DX009 (ip), vehicle: saline with Tween-80
[9] = dose: 200.0 mg/kg/injection, schedule: Q01DX009 (ip), vehicle: saline with Tween-80
[10] = dose: 50.0 mg/kg/injection, schedule: Q01DX009 (ip), vehicle: Klucel (hydroxypropylcellulose) (HPC)
[11] = dose: 50.0 mg/kg/injection, schedule: Q01DX009 (ip), vehicle: saline with Tween-80

## CS(=O)(=O)NC(=O)NC(=S)c1ccccc1
dose: 100.0 mg/kg/injection, schedule: Q01DX001 (ip), vehicle: saline with Tween-80
  T/C: 100 % of control
dose: 200.0 mg/kg/injection, schedule: Q01DX001 (ip), vehicle: saline with Tween-80
  T/C: 100 % of control
dose: 400.0 mg/kg/injection, schedule: Q01DX001 (ip), vehicle: saline with Tween-80
  T/C: 108 % of control

## O=C1/C(=C\c2ccco2)SC(=S)N1c1ccccc1
[1]
  T/C: 96 % of control
[2]
  T/C: 89 % of control
dose: 40.0 mg/kg/injection, schedule: Q01DX009 (ip), vehicle: saline with Tween-80
  T/C: 98 % of control

## O=C(N/N=C/c1ccc2c(c1)CCC2)c1ccccc1
dose: 25.0 mg/kg/injection, schedule: Q04DX003 (ip), vehicle: Klucel (hydroxypropylcellulose) (HPC)
  T/C: 100 % of control
dose: 50.0 mg/kg/injection, schedule: Q04DX003 (ip), vehicle: Klucel (hydroxypropylcellulose) (HPC)
  T/C: 96 % of control
[3]
  T/C: 94 % of control
[4]
  T/C: 100 % of control

## O=C(O)c1ccccc1C(=O)Nc1cc(C(F)(F)F)ccc1Cl
[5]
  T/C: 90 % of control
[6]
  T/C: 104 % of control
[7]
  T/C: 118 % of control

## CCN(CC)C(C)CN1c2ccccc2Sc2ccccc21 (stereo not given)
dose: 25.0 mg/kg/injection, schedule: Q01DX009 (ip), vehicle: saline
  T/C: 100 % of control
dose: 50.0 mg/kg/injection, schedule: Q01DX009 (ip), vehicle: saline
  T/C: 112 % of control
dose: 100.0 mg/kg/injection, schedule: Q01DX009 (ip), vehicle: saline
  T/C: 116 % of control

## Nc1nc(N)c(N=O)c(Nc2ccc(I)cc2)n1
[8]
  T/C: 108 % of control
[5]
  T/C: 112 % of control
[9]
  T/C: 95 % of control
[6]
  T/C: 108 % of control
[7]
  T/C: 100 % of control

## CC1(C)C2CCC1(C)C(OC(=O)c1ccc([N+](=O)[O-])cc1)C2OC(=O)c1ccc([N+](=O)[O-])cc1 (stereo not given)
dose: 75.0 mg/kg/injection, schedule: Q04DX003 (ip), vehicle: other
  T/C: 100 % of control
dose: 150.0 mg/kg/injection, schedule: Q04DX003 (ip), vehicle: other
  T/C: 91 % of control
dose: 300.0 mg/kg/injection, schedule: Q04DX003 (ip), vehicle: other
  T/C: 91 % of control

## COc1ccc(C(=O)NN2C(N)=NC(N)=NC2(C)C)cc1
dose: 50.0 mg/kg/injection, schedule: Q04DX003 (ip), vehicle: saline sonified
  T/C: 100 % of control
dose: 100.0 mg/kg/injection, schedule: Q04DX003 (ip), vehicle: saline sonified
  T/C: 100 % of control
dose: 200.0 mg/kg/injection, schedule: Q04DX003 (ip), vehicle: saline sonified
  T/C: 105 % of control

## CCCCCCCC(O)CCCC (stereo not given)
[3]
  T/C: 87 % of control
[4]
  T/C: 91 % of control
dose: 400.0 mg/kg/injection, schedule: Q04DX003 (ip), vehicle: Klucel (hydroxypropylcellulose) (HPC)
  T/C: 91 % of control

## CN(C)CC1CCC/C(=C\C=C\c2ccccc2)C1=O (stereo not given)
dose: 4.37 mg/kg/injection, schedule: Q01DX009 (ip), vehicle: Klucel (hydroxypropylcellulose) (HPC)
  T/C: 104 % of control and 113 % of control
dose: 8.75 mg/kg/injection, schedule: Q01DX009 (ip), vehicle: Klucel (hydroxypropylcellulose) (HPC)
  T/C: 109 % of control
dose: 17.5 mg/kg/injection, schedule: Q01DX009 (ip), vehicle: Klucel (hydroxypropylcellulose) (HPC)
  T/C: 109 % of control and 118 % of control
dose: 35.0 mg/kg/injection, schedule: Q01DX009 (ip), vehicle: Klucel (hydroxypropylcellulose) (HPC)
  T/C: 120 % of control
[10]
  T/C: 120 % of control
dose: 75.0 mg/kg/injection, schedule: Q01DX009 (ip), vehicle: Klucel (hydroxypropylcellulose) (HPC)
  T/C: 120 % of control

## CCCCC(CC)COC(=O)CC(CC(=O)OCC(CC)CCCC)C(=O)OCC(CC)CCCC (stereo not given)
[11]
  T/C: 92 % of control
[8]
  T/C: 92 % of control
[9]
  T/C: 92 % of control

## CNC(=S)ON1CCCCC1
[11]
  T/C: 116 % of control
[8]
  T/C: 114 % of control
[9]
  T/C: 121 % of control

## Cc1ccc2c(c1)nc1c3ccccc3nnn21
dose: 50.0 mg/kg/injection, schedule: Q04DX003 (ip), vehicle: saline with Tween-80
  T/C: 112 % of control
[5]
  T/C: 104 % of control
[6]
  T/C: 107 % of control

## COc1ccc(C(=S)N(C)NC(=O)CC(=O)NN(C)C(=S)c2ccc(OC)cc2)cc1
dose: 25.0 mg/kg/injection, schedule: Q01DX009 (ip), vehicle: Klucel (hydroxypropylcellulose) (HPC)
  T/C: 100 % of control
[10]
  T/C: 102 % of control
dose: 100.0 mg/kg/injection, schedule: Q01DX009 (ip), vehicle: Klucel (hydroxypropylcellulose) (HPC)
  T/C: 89 % of control
dose: 200.0 mg/kg/injection, schedule: Q01DX009 (ip), vehicle: Klucel (hydroxypropylcellulose) (HPC)
  T/C: 100 % of control

## CC1(C)C(=O)N(Cl)C(=O)N1Cl
dose: 6.25 mg/kg/injection, schedule: Q01DX009 (ip), vehicle: saline with Tween-80
  T/C: 109 % of control
dose: 12.5 mg/kg/injection, schedule: Q01DX009 (ip), vehicle: saline with Tween-80
  T/C: 113 % of control
dose: 25.0 mg/kg/injection, schedule: Q01DX009 (ip), vehicle: saline with Tween-80
  T/C: 263 % of control

## COc1c2c(c(OC)c3ccccc13)C(=O)c1ccccc1C2=O
dose: 25.0 mg/kg/injection, schedule: Q01DX005 (ip), vehicle: saline
  T/C: 115 % of control
dose: 50.0 mg/kg/injection, schedule: Q01DX005 (ip), vehicle: saline
  T/C: 87 % of control
dose: 100.0 mg/kg/injection, schedule: Q01DX005 (ip), vehicle: saline
  T/C: 95 % of control
dose: 200.0 mg/kg/injection, schedule: Q01DX005 (ip), vehicle: saline
  T/C: 93 % of control

## COc1cccc(CCNC(=O)CC#N)c1OC
[11]
  T/C: 105 % of control
[8]
  T/C: 105 % of control
[5]
  T/C: 100 % of control
[9]
  T/C: 95 % of control
[6]
  T/C: 100 % of control
[7]
  T/C: 100 % of control

## O=C(Nc1cccc2ccccc12)ON1C(=O)c2ccccc2C1=O
dose: 50.0 mg/kg/injection, schedule: Q01DX005 (ip), vehicle: saline with Tween-80
  T/C: 110 % of control
dose: 100.0 mg/kg/injection, schedule: Q01DX005 (ip), vehicle: saline with Tween-80
  T/C: 115 % of control
dose: 200.0 mg/kg/injection, schedule: Q01DX005 (ip), vehicle: saline with Tween-80
  T/C: 120 % of control

## O=C(c1ccccc1)C1CCC(=O)C1c1ccccc1 (stereo not given)
[11]
  T/C: 108 % of control
[8]
  T/C: 100 % of control
[9]
  T/C: 99 % of control

## Nc1ncnc2c1nnn2C1CC(CO)C(O)C1O (stereo not given)
dose: 67.0 mg/kg/injection, schedule: Q01DX009 (ip), vehicle: saline with Tween-80
  T/C: 163 % of control
dose: 75.0 mg/kg/injection, schedule: Q01DX009 (ip), vehicle: saline with Tween-80
  T/C: 153 % of control
[8]
  T/C: 168 % of control

## CC1([CH2][Hg][I])COCC([CH2][Hg][I])O1 (stereo not given)
dose: 2.87 mg/kg/injection, schedule: Q04DX003 (ip), vehicle: saline
  T/C: 100 % of control
dose: 5.0 mg/kg/injection, schedule: Q01DX009 (ip), vehicle: saline with Tween-80
  T/C: 118 % of control
dose: 5.0 mg/kg/injection, schedule: Q04DX003 (ip), vehicle: saline with Tween-80
  T/C: 100 % of control
dose: 5.75 mg/kg/injection, schedule: Q01DX009 (ip), vehicle: saline
  T/C: 95 % of control
dose: 5.75 mg/kg/injection, schedule: Q04DX003 (ip), vehicle: saline
  T/C: 109 % of control
[1]
  T/C: 113 % of control
dose: 10.0 mg/kg/injection, schedule: Q04DX003 (ip), vehicle: saline with Tween-80
  T/C: 90 % of control
dose: 11.5 mg/kg/injection, schedule: Q01DX009 (ip), vehicle: saline
  T/C: 100 % of control
dose: 11.5 mg/kg/injection, schedule: Q04DX003 (ip), vehicle: saline
  T/C: 100 % of control
dose: 17.0 mg/kg/injection, schedule: Q04DX003 (ip), vehicle: saline
  T/C: 100 % of control
[2]
  T/C: 95 % of control
dose: 20.0 mg/kg/injection, schedule: Q04DX003 (ip), vehicle: saline with Tween-80
  T/C: 118 % of control
dose: 26.0 mg/kg/injection, schedule: Q04DX003 (ip), vehicle: saline
  T/C: 118 % of control

## O=C1Nc2c(Cl)cc(Cl)cc2C12Nc1ccccc1S2 (stereo not given)
[11]
  T/C: 112 % of control
[8]
  T/C: 96 % of control
[9]
  T/C: 107 % of control

## CC1(C)COC(C)(C(=O)NN)OC1
dose: 100.0 mg/kg/injection, schedule: Q04DX002 (ip), vehicle: saline
  T/C: 104 % of control
dose: 200.0 mg/kg/injection, schedule: Q04DX002 (ip), vehicle: saline
  T/C: 101 % of control
dose: 400.0 mg/kg/injection, schedule: Q04DX002 (ip), vehicle: saline
  T/C: 92 % of control
